# Data from article PMC9380671, “Development of spiro-3-indolin-2-one containing compounds of antiproliferative and anti-SARS-CoV-2 properties” (Scientific Reports, 2022).
# Where two headings read alike, the source gives them in different places.
# What was measured:
# [1] = test system: MCF7 (breast) cancer cell line; test: MTT antiproliferation, MCF7; format: cell-based, human; conditions: for IC50: Homo sapiens, MCF7, 72 h, read-out: IC50 (µM) ± SEM MCF7; for SI (selectivity index) MCF7: IC50 of RPE1/IC50 of cancer cell line
# Method: (§1) Antiproliferation properties of the targeted agents were investigated by the standard MTT technique against diverse human cancer cell lines [MCF7 (breast), HCT116 (colon), A431 (skin squamous) and PaCa2 (pancreatic)][67] (Table 1, Supplementary Figs. S48‒S51).
# (§2) Cells were seeded at concentration of 30000 cells per well in fresh complete growth medium in 96-well tissue culture microtiter plates for 24 h. […] 0.5% DMSO was used as negative control. Triplicate wells were prepared for each individual dose. After 72 h of incubation, medium was aspirated, 40 μl MTT salt (2.5 mg ml^-1) was added to each well and incubated for further 4 h at 37 °C. To stop the reaction and dissolve the formed crystals, 150 μl of 10% sodium dodecyl sulfate (SDS) in deionized water was added to each well and incubated overnight at 37 °C.
# (§3) Data were collected as mean values for experiments performed in triplicates for each individual dose which had been measured by MTT assay. […] The cell surviving fraction was calculated according to the following equation.
# (§4) Surviving fraction = OpticaldensityO.D.oftreatedcellsO.D.ofcontrolcells
# (§5) Statistical calculations for determination of the mean and standard error mean values were determined by SPSS 16 software.
# [2] = test system: HCT116 (colon) cancer cell line; test: MTT antiproliferation, HCT116; format: cell-based, human; conditions: for IC50: Homo sapiens, HCT-116, 72 h, read-out: IC50 (µM) ± SEM HCT116; for SI (selectivity index) HCT116: IC50 of RPE1/IC50 of cancer cell line
# Method: as §1, §2, §3, §4, §5
# [3] = test system: A431 (skin squamous) cancer cell line; test: MTT antiproliferation, A431; format: cell-based, human; conditions: for IC50: Homo sapiens; for SI (selectivity index) A431: IC50 of RPE1/IC50 of cancer cell line
# Method: as §1, §2, §3, §4, §5
# [4] = test system: PaCa2 (pancreatic) cancer cell line; test: MTT antiproliferation, PaCa-2; format: cell-based, human; conditions: for IC50: Homo sapiens, PaCa-2, 72 h, read-out: IC50 (µM) ± SEM PaCa-2; for SI (selectivity index) PaCa-2: IC50 of RPE1/IC50 of cancer cell line
# Method: as §1
# Cells were suspended in DMEM medium for MCF7, A431, PaCa-2 and McCoy’s 5A for HCT116 in addition to 1% antibiotic–antimycotic mixture (10000 μg ml^-1 potassium penicillin, 10000 μg ml^-1 streptomycin sulfate and 25 μg ml^-1 amphotericin B), 10% fetal bovine serum and 1% L-glutamine at 37 °C, under 5% CO2 and 95% humidity. Cells were seeded at concentration of 30000 cells per well in fresh complete growth medium in 96-well tissue culture microtiter plates for 24 h. Media was aspirated, fresh complete medium was added and cells were incubated with different concentrations of the tested compound to give a final concentration of [50, 25, 12.5 and 6.25 μM “in addition to 3.125, 1.56 and 0.78 μM in case of high potent analogues”). 0.5% DMSO was used as negative control. Triplicate wells were prepared for each individual dose. After 72 h of incubation, medium was aspirated, 40 μl MTT salt (2.5 mg ml^-1) was added to each well and incubated for further 4 h at 37 °C. To stop the reaction and dissolve the formed crystals, 150 μl of 10% sodium dodecyl sulfate (SDS) in deionized water was added to each well and incubated overnight at 37 °C. The absorbance was then measured at 570 nm and a reference wavelength of 595 nm.
# as §3, §4
# (§6) Statistical calculations for determination of the mean and standard error mean values were determined by SPSS 16 software. The observed anti-proliferative properties are presented in Table 1 (Supplementary Figs. S48‒S52).
# [5] = test system: RPE1 (normal human immortalized retinal pigment epithelial cell line); test: MTT toxicity towards normal cells, RPE1; format: cell-based; conditions: RPE-1, read-out: IC50 (µM) ± SEM RPE1
# Method: The safety of the synthesized agents against non-cancer/normal RPE1 (retinal pigment epithelium) cell line was assessed (Table 1, Supplementary Fig. S52). The SI (selectivity index) for the tested compounds against RPE1 cell line confirms the safety towards non-cancer cells. […] Compound 6d and 6h which are also of high anti-PaCa2 show remarkable SI values (SI = > 3.8, > 3.6, respectively).
# The agents synthesized were also tested against RPE1 (normal human immortalized retinal pigment epithelial cell line) cell (in DMEM-F12 medium) to determine the toxicity/selectivity towards normal cells relative to the cancer cell lines utilized.
# as §6
# EGFR = target: T1, EGFR (Homo sapiens, UniProt P00533); format: cell-based; conditions: western blot, MCF7, compound at its MTT IC50; for EGFR RQ (relative quantification): control RQ 3.4461
# T1 construct: Western blot technique was considered for EGFR and VEGFR-2 properties determination; endogenous in cells; host or cells: MCF7 (breast cancer cell line)
# T1 sequence (P00533 25-1210): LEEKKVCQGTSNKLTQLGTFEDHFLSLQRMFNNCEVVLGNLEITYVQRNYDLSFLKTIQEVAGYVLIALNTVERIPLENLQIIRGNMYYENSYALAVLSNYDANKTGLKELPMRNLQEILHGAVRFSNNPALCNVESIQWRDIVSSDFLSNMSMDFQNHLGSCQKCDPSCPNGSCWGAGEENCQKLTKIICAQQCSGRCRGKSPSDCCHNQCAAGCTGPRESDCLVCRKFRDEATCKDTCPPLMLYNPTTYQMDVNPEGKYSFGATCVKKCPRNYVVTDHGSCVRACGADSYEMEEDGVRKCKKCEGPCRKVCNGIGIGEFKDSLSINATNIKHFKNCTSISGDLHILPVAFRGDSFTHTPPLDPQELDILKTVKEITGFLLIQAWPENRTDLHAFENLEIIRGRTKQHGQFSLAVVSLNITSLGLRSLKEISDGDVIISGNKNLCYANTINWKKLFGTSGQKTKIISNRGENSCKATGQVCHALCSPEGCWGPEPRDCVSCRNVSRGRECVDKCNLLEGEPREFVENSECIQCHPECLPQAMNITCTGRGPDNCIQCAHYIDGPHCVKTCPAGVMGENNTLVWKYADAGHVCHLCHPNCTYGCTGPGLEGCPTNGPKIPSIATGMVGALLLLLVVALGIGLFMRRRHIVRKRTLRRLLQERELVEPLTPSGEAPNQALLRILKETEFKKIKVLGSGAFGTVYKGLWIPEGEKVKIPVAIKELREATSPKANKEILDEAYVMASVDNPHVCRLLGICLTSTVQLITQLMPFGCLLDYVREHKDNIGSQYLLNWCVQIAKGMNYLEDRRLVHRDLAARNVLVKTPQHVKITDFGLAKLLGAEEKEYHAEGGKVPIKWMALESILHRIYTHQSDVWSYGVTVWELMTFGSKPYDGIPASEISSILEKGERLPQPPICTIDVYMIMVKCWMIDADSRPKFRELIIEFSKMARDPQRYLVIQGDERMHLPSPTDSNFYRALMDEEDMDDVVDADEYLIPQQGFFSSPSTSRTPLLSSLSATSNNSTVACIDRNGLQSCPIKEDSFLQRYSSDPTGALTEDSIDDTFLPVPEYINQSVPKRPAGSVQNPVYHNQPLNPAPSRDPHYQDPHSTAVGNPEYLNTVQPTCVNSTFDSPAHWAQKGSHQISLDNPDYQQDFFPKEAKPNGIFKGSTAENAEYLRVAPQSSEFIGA
# Excerpt: (§7) The western blot technique was applied utilizing the IC50 observed for each respective agent synthesized during MTT assay[85],[86]. Consideration of multi-targeted inhibitory properties investigation is based in the fact that cancer initiation and proliferation sometimes utilizes many receptors or signaling pathways.
# (§8) Western blot technique was considered for EGFR and VEGFR-2 properties determination utilizing the IC50 observed of each respective agent synthesized during MTT assay against MCF7 (breast) cancer cell line. All the studies were conducted according to the manufacturer’s instruction.^10,^11
# VEGFR-2 = target: T2, VEGFR-2 (Homo sapiens, UniProt P35968); format: cell-based; conditions: western blot, MCF7, compound at its MTT IC50; for VEGFR-2 RQ (relative quantification): control RQ 3.2634
# T2 construct: Western blot technique was considered for EGFR and VEGFR-2 properties determination; endogenous in cells; host or cells: MCF7 (breast cancer cell line)
# T2 sequence (P35968 20-1356): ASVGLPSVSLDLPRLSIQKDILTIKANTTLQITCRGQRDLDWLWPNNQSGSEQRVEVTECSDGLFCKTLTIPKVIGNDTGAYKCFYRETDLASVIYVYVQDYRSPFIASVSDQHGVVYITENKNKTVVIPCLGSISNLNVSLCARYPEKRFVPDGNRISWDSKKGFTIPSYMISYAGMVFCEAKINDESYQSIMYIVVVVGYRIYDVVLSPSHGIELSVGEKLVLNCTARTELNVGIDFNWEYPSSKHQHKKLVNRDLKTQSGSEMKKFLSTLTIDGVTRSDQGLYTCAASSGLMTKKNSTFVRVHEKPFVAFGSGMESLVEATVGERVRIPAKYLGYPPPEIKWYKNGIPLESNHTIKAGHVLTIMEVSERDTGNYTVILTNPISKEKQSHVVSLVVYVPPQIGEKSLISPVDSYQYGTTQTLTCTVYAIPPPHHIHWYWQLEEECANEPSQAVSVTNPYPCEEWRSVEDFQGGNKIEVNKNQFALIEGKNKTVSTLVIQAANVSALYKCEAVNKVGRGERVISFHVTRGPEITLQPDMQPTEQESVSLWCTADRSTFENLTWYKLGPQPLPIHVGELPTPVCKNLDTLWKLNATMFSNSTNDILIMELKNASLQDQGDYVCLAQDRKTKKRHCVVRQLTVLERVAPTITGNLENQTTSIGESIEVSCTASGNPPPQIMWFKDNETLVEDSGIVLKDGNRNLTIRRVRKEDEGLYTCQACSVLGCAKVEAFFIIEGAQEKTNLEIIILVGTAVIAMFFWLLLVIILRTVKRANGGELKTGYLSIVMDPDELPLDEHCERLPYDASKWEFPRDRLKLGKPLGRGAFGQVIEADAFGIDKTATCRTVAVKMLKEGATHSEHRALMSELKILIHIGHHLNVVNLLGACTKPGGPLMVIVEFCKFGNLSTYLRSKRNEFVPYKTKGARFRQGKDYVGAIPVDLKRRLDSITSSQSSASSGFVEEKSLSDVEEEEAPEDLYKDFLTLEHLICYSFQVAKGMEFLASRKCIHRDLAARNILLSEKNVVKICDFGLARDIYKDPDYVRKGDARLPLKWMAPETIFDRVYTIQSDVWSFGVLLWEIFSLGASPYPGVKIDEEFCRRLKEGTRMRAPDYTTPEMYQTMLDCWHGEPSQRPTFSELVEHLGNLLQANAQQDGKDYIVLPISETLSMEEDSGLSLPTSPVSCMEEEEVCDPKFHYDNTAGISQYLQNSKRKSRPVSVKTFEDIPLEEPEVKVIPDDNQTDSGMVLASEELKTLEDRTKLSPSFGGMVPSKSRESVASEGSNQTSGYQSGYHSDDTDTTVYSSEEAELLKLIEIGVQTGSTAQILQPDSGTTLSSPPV
# Excerpt: as §7, §8
# [6] = test system: SARS-CoV-2 (hCoV-19/Egypt/NRC-03/2020); test: Vero-E6 cell viral infection model, anti-SARS-CoV-2 IC50 (CPE, crystal violet); format: cell-based; conditions: for IC50: Severe acute respiratory syndrome coronavirus 2, Vero C1008; for SI = CC50/IC50: Vero-E6, SARS-CoV-2
# [7] = MTT cytotoxicity assay (CC50); format: cell-based; conditions: African green monkey, VERO-E6 cells
# Method: The cytotoxic activity of the compounds was tested in VERO-E6 cells by using the 3-(4,5-dimethylthiazol-2-yl)-2,5-diphenyltetrazolium bromide (MTT) method with minor modifications. Briefly, the cells were seeded in 96 well-plates […] at a density of 3 x 10^5 cell/ml and incubated for 24 h at 37 °C in 5% CO2. After 24 h, cells were treated with various concentrated of the tested compounds in triplicates. 24 h later, the supernatant was discarded and cell monolayers were washed with sterile 1x phosphate buffer saline (PBS) 3 times and MTT solution (20 µl of 5 mg/ml) was added to each well and incubated at 37 °C for 4 h followed by medium aspiration. In each well, the formed formazan crystals were dissolved with 200 µl of acidified isopropanol (0.04 M HCl in absolute isopropanol = 0.073 ml HCl in 50 ml isopropanol). Eventually, the absorbance was measured at λmax 570 nm using the Anthos Zenyth 200rt plate reader (Anthos Labtec Instruments, Heerhugowaard, Netherlands). The cytotoxicity of various concentrations compared to the untreated cells was determined using nonlinear regression analysis by plotting log inhibitor versus normalized response.^12^-14
# AChE = AChE (Homo sapiens, UniProt P22303); test: AChE inhibition (DTNB, acetylthiocholine); format: biochemical; conditions: for IC50: read-out: AChE (IC50, μM) ± SD
# AChE, sequence (P22303 32-614): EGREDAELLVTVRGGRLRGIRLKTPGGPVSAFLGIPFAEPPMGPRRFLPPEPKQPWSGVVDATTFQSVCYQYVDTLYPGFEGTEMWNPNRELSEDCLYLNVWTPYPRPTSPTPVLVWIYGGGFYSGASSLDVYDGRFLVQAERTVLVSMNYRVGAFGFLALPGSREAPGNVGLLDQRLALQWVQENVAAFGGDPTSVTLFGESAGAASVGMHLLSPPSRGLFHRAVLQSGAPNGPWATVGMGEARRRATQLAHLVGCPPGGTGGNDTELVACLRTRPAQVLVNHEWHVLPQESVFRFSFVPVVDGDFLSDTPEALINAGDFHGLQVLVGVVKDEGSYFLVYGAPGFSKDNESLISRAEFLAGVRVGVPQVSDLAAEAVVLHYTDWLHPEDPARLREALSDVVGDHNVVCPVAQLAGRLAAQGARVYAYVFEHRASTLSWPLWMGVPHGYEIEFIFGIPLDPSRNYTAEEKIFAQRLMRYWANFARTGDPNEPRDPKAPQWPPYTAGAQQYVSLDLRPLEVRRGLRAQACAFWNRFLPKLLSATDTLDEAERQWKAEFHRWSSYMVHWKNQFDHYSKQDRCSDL
# Method: All compounds were dissolved in MeOH.
# BChE = BChE (Homo sapiens, UniProt P06276); test: BChE inhibition (DTNB, butyrylthiocholine iodide)
# BChE, sequence (P06276 29-602, species assumed): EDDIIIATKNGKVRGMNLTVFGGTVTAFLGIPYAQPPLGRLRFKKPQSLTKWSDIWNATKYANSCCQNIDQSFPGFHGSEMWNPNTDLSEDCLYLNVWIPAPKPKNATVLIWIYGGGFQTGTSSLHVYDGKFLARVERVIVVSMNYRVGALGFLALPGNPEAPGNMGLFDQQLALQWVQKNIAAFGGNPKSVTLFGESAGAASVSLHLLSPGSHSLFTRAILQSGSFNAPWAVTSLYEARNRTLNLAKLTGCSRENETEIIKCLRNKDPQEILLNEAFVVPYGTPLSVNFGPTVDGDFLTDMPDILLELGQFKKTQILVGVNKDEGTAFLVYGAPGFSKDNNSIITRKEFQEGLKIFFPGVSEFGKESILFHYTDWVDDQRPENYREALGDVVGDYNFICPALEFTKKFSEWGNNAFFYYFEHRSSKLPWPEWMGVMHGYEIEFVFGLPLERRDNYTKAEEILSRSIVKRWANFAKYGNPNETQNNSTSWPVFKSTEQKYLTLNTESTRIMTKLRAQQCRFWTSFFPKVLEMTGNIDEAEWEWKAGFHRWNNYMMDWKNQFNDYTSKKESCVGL
# [8] = A-431, 72 h, read-out: IC50 (µM) ± SEM A431
# [9] = A-431, read-out: Observed log(IC50, μM) (A431) (converted)
# [10] = Vero-E6, 72 h, reduction of virus-induced CPE, read-out: IC50 (µM) SARS-CoV-2
# [11] = log of observed IC50 in μM, read-out: Observed log(IC50, μM) (SARS-CoV-2) (converted)
SMILES,IC50 [1],SI (selectivity index) MCF7 [1],IC50 [2],SI (selectivity index) HCT116 [2],"IC50 [3, 8]","IC50 [3, 9]",SI (selectivity index) A431 [3],IC50 [4],IC50 [5],EGFR % Inhibition (EGFR),EGFR RQ (relative quantification) (EGFR),VEGFR-2 % Inhibition (VEGFR-2),VEGFR-2 RQ (relative quantification) (VEGFR-2),"IC50 [6, 10]","IC50 [6, 11]",SI = CC50/IC50 [6],CC50 at 24 h [7],SI = IC50 (AChE)/IC50 (BChE) (AChE),IC50 (AChE),IC50 (BChE),further results
"CN1CC(c2ccc(F)cc2)C2(CN(S(C)(=O)=O)C/C(=C\c3ccc(F)cc3)C2=O)C12C(=O)Nc1ccccc12 (stereo not drawn) [Compound 6e, (E)-5″-(4-Fluorobenzylidene)-4′-(4-fluorophenyl)-1′-methyl-1″-(methylsulfonyl)dispiro[indoline-3,2′-pyrrolidine-3′,3″-piperidine]-2,4″-dione]",15.5 ± 0.76 µM,3.2,9.89 ± 0.85 µM,5.0,16.1 ± 0.99 µM,16.1 µM,3.1,39.9 ± 1.89 µM,49 ± 1.11 µM,66.7%,1.147,64.5%,1.158,27.9 µM,27.9 µM,7.3,203 µM,0.7,15.1 ± 5.76 µM,22.2 ± 4.54 µM,SI (selectivity index) PaCa-2 [4]: 1.2
"CN1CC(c2ccccc2)C2(CN(S(C)(=O)=O)C/C(=C\c3ccccc3)C2=O)C12C(=O)Nc1ccc(Cl)cc12 (stereo not drawn) [Compound 6b, (E)-5″-Benzylidene-5-chloro-1′-methyl-1″-(methylsulfonyl)-4′-phenyldispiro[indoline-3,2′-pyrrolidine-3′,3″-piperidine]-2,4″-dione]",7.66 ± 0.68 µM,3.2,6.92 ± 0.52 µM,3.6,9.15 ± 0.7 µM,9.15 µM,2.7,20.6 ± 1.17 µM,24.7 ± 1.26 µM,54.1%,1.5804,64.2%,1.167,9.63 µM,9.63 µM,132.0,1270 µM,0.9,27.7 ± 5.45 µM,29.2 ± 3.62 µM,SI (selectivity index) PaCa-2 [4]: 1.2
"CCS(=O)(=O)N1C/C(=C\c2ccccc2)C(=O)C2(C1)C(c1ccccc1)CN(C)C21C(=O)Nc2ccccc21 (stereo not drawn) [Compound 6c, (E)-5″-Benzylidene-1″-(ethylsulfonyl)-1′-methyl-4′-phenyldispiro[indoline-3,2′-pyrrolidine-3′,3″-piperidine]-2,4″-dione]",> 50 µM,–,6.12 ± 0.44 µM,> 8.2,33.2 ± 0.91 µM,33.2 µM,> 1.5,> 50 µM,> 50 µM,69.6%,1.0493,63.8%,1.18,103 µM,103 µM,55.5,5700 µM,1.2,78 ± 3.26 µM,65.4 ± 2.42 µM,–
"CN1CC(c2ccc(F)cc2)C2(CN(S(C)(=O)=O)C/C(=C\c3ccc(F)cc3)C2=O)C12C(=O)Nc1ccc(Cl)cc12 (stereo not drawn) [Compound 6f, (E)-5-Chloro-5″-(4-fluorobenzylidene)-4′-(4-fluorophenyl)-1′-methyl-1″-(methylsulfonyl)dispiro[indoline-3,2′-pyrrolidine-3′,3″-piperidine]-2,4″-dione]",5 ± 0.39 µM,3.6,5.43 ± 0.46 µM,3.3,4.76 ± 0.37 µM,4.76 µM,3.7,11.7 ± 0.94 µM,17.8 ± 0.87 µM,69.3%,1.058,64.7%,1.153,7.67 µM,7.67 µM,8.8,67.8 µM,1.0,3.89 ± 1.66 µM,3.75 ± 0.71 µM,SI (selectivity index) PaCa-2 [4]: 1.5; times the potency of chloroquine against SARS-CoV-2 ([6]; ratio of IC50 values): about 3.3 times; times the potency of hydroxychloroquine against SARS-CoV-2 ([6]; ratio of IC50 values): ~4.8 times
